Measurements taken from patent US4652562A, “Quinoline derivatives and pharmaceutical compositions” (Egis Gyogyszergyar, priority 1985, dated 1987).

Tests used:
[1] = Toxicity in test animals (CFLP mice), LD50 per os; conditions: mouse, in vivo, po
[2] = test system: hypoxic Chinese hamster ovary cells; test: Radiosensitization of hypoxic Chinese hamster ovary cells, radiation survival curves (Do, Dq, N); assay type: cell-based; conditions: for Dq (quasi threshold dose): Dq = Do ln N, minimum dose necessary to appearance of cell killing; for Do (mean lethal dose): hypoxic CHO cells, untreated controls 3.75-3.8 Gy
From the text: As is known [T. W. Wong, G. F. Whitmore and S. Gulyas: Radiat. Res. 75, 541-555 (1978)], parameters derived from radiation survival curves can be used for characterization of modifying effect, e.g. the slope of the exponential portion of survival curve and the calculated mean lethal dose (Do) as well as the overall extrapolation number (N).
The dose multiplication radiosensitization (DMR) means the ability of a given compound to increase the slope of the survival curve and consequently to decrease the mean lethal dose (Do).
On the effect of dose-additive radiosensitization (DAR) there is a reduction in the shoulder region of radiation survival curves, and in the best cases the sigmoid type survival curves characteristic of mammalian cells change into exponential ones.
For the degree of radiation modification, the quasi threshold dose (Dq) can be used, as well. This dose represents the width of shoulder region of radiation survival curves (Dq =Do ln N). The meaning of this measure from radiobiological point of view is the minimal dose necessary to produce appreciable cell killing effect.
1. […] According to the literature data, studies were undertaken on the same test-systems [Chinese hamster ovary cells cultured in vitro (CHO) and under similar circumstances (oxygenic- and hypoxic conditions, α-MEM with 10% foetal calf serum)].
Experiments were undertaken with hypoxic Chinese hamster ovary cells.
4. Determination of the quasi threshold dose (Dq). These values indicate the minimum dose necessary to the appearance of the end point (cell killing) studied from biological point of view.

hypoxic cells = conditions: literature (Wong et al. 1978); cited from earlier work
[3] = cited from earlier work

Row | SMILES | LD50 [1] | Dq (quasi threshold dose) [2] | Do (mean lethal dose) [2] | Dq (quasi threshold dose) ([2]; listed as misonidazole) | degree of dose-multiplicative and dose-additive radiosensitization (hypoxic cells) | dose-multiplicative or dose-additive radiosensitization ([3]; 0° C., depending on drug concentration, Harris et al. 1975) | toxicity ([3]; 37° C.)
1 | NC(=Nc1c([N+](=O)[O-])cnc2ccccc12)N1CCOCC1 [Example 1, N-(3-Nitro-4-quinolyl)-morpholino carboxamidine] | > 2000 mg/kg | 0 Gy | 1.7 Gy |  |  |  | 
2 | COCC(O)Cn1ccnc1[N+](=O)[O-] (stereo not shown) [Misonidazole, 3-methoxy-1-(2-nitro-1-imidazole-1-yl)-2-propanol] |  | 5 Gy | 2.5 Gy | above 5 Gy | only in a small degree |  | 
3 | CN(C)C(=O)N=NC(=O)N(C)C [Diamide, tetramethyl-diazene-dicarboxamide] |  |  | 3.3 Gy |  |  | either dose-multiplicative- or dose-additive-radiosensitization could be observed at a lower temperature (0° C.) depending on the drug concentration applied, but both effects did not appear simultaneously | extremely toxic
